Data on five molecules can be found in paper PMC12670396, “Crizotinib- or Ceritinib-Conjugated Platinum(IV) Prodrugs As Potent Multiaction Agents Inducing Antiproliferative Effects in 2D and 3D Cancer Cell Models” (Journal of Medicinal Chemistry, 2025).

Some results are limits rather than exact numbers.

The nature of data set [1]: Stability in RPMI cell culture medium with serum (HPLC). Conditions: for intact Pt(IV) prodrug still present: after 3 days in the media. How it is done: Two conditions must be met for Pt(IV) complexes to serve as true prodrugs: they must remain stable in biological fluids and should be activated by reduction within the cancer cells to release the bioactive components in their active form, thereby facilitating the rapid onset of cytotoxic effects. […] The reduction in the area of the HPLC peak of the compounds was monitored as a function of time, and their half-lives were calculated (Table and Figures S26,S27).
The stock solutions were prepared by dissolving the compounds in a 1:9 (v/v) mixture of DMSO and RPMI media. After preparation, the samples were injected and stored at 37 °C throughout the experiment. The final concentration of the complexes used for the experiment is 50–60 μM.

Data set [2] can be described thus: Reduction by L-ascorbic acid in phosphate buffer (RP-HPLC). Type of data set: physicochemical. The note with it: 10 equiv L-ascorbic acid, 10% DMSO in 100 mM phosphate buffer pH 7.4, 37 °C. As for the experimental part:
The reduction of Pt(IV) complexes was performed by reacting with 10 equiv of L-ascorbic acid in 10% DMSO in 100 mM phosphate buffer (pH 7.4) at 37 °C, and was monitored by reverse-phase analytical HPLC. The half-lives for the reduction were calculated from the decreasing peak areas as a function of time.
The reduction of the Pt(IV) complexes was performed in the presence of 10 equiv of L-ascorbic acid (AA) in phosphate buffer (100 mM, pH 7.4) at 37 °C using reverse-phase analytical HPLC. […] The platinum complexes were dissolved in 10% DMSO with 50% MeOH and added to 100 mM phosphate buffer (pH 7.4). […] The samples were injected and stored at 37 °C throughout the experiment.

The next data set relates to A549. Put plainly: MTT cytotoxic/antiproliferative activity, 72 h. Conditions: A549, MTT, 72 h. Type of data set: cell-based, human.
A further data set concerns NCI-H2228. The data set is described as follows: MTT cytotoxic/antiproliferative activity, 72 h. It counts as cell-based, human. Conditions: NCI-H2228, MTT, 72 h.
The next data set has as its system U87-MG. Put plainly: MTT cytotoxic/antiproliferative activity, 72 h. It counts as cell-based, human. The note with it: MTT, 72 h. As for the experimental part:
(§1) A panel of six cancer cell lines was used to evaluate the cytotoxic potential of the investigated compounds.
(§2) Cytotoxicity in hepatocyte-like cells (HLC). STEMdiff Hepatocyte Kit was used to generate HLC from human pluripotent stem cells. Cytotoxicity of several of the tested compounds in HLC was evaluated using the sulphorhodamine B assay.

The subject of another data set is HCT116. Put plainly: MTT cytotoxic/antiproliferative activity, 72 h. Type of data set: cell-based, human. The note with it: HCT116, MTT, 72 h.
In another data set the test system is RD. Put plainly: MTT cytotoxic/antiproliferative activity, 72 h. Type of data set: cell-based, human. Conditions: MTT, 72 h.
The test system of a further data set is MDA-MB-231. The data set is described as follows: MTT cytotoxic/antiproliferative activity, 72 h. Type of data set: cell-based, human. The note with it: MDA-MB-231, MTT, 72 h.
A further data set concerns IMR-90. Put plainly: MTT cytotoxicity in noncancerous cells, 72 h. Type of data set: cell-based, human. The note with it: IMR-90, MTT. How it is done: (§3) Growth inhibition activity in cancer cell lines was compared with the activity to inhibit the proliferation of normal (noncancerous) cells, namely MRC-5, IMR-90, hTERT-HPNE, and MCF10A cells. Selectivity indexes (SI) were calculated as (IC50 in noncancerous cells)/(average IC50 in cancer cells). […] We further assessed the toxicity of several of the compounds in hepatocyte-like cells (HLC) generated from human pluripotent cells.
as §2

For another data set, the system named is MCF10A. The data set is described as follows: MTT cytotoxicity in noncancerous cells, 72 h. Type of data set: cell-based, human. As for the experimental part: as §3, §2
A further data set has as its system MRC-5. The data set is described as follows: MTT cytotoxicity in noncancerous cells, 72 h. Type of data set: cell-based, human. The note with it: MRC-5, MTT. As for the experimental part:
as §3, §2

The test system of the next data set is hTERT-HPNE. Put plainly: MTT cytotoxicity in noncancerous cells, 72 h. It counts as cell-based, human. How it is done:
as §3, §2

The test system of the next data set is CHOK1. Put plainly: MTT cytotoxicity in NER-proficient cells, 72 h. It counts as cell-based, Chinese hamster.
Source text: The cytotoxicity assay was also employed to determine whether DNA damage might be involved in the mechanism of action of the tested compounds. The Chinese hamster ovary MMC2 cell line harbors the ERCC3/XPB mutation, which renders it deficient in nucleotide excision repair (NER), whereas the parent line CHOK1 is proficient in this repair process. Thus, the MMC2 line is often more sensitive to agents causing DNA damage, especially NER-reparable DNA damage, than CHOK1. […] Phosphorylation of H2AX is a commonly used marker of DNA damage.
as §2

The next data set relates to MMC2. Put plainly: MTT cytotoxicity in NER-deficient cells, 72 h. It counts as cell-based, Chinese hamster. The note with it: for Index F: IC50(CHOK1)/IC50(MMC2); for IC50: MMC2 (NER deficient), MTT, 72 h. An excerpt: The cytotoxicity assay was also employed to determine whether DNA damage might be involved in the mechanism of action of the tested compounds. The Chinese hamster ovary MMC2 cell line harbors the ERCC3/XPB mutation, which renders it deficient in nucleotide excision repair (NER), whereas the parent line CHOK1 is proficient in this repair process. Thus, the MMC2 line is often more sensitive to agents causing DNA damage, especially NER-reparable DNA damage, than CHOK1. […] Phosphorylation of H2AX is a commonly used marker of DNA damage. […]

In data set [3] the test system is panel of six cancer cell lines. The data set is described as follows: MTT, panel of six cancer cell lines (average, ranges). It counts as cell-based, human. Conditions: average over six cancer cell lines; read-out: av cancer (average IC50 in cancer cells). As for the experimental part: as §1, §2
In data set [4] the test system is normal (noncancerous) cells MRC-5, IMR-90, hTERT-HPNE, MCF10A. Put plainly: MTT, noncancerous cell lines (average, selectivity index). Type of data set: cell-based, human. The note with it: for SI, selectivity index: IC50(normal cells)/averageIC50(cancer cells); for IC50: average over MRC-5, IMR-90, hTERT-HPNE, MCF10A, read-out: av norm (average IC50 in noncancerous cells). As for the experimental part: Growth inhibition activity in cancer cell lines was compared with the activity to inhibit the proliferation of normal (noncancerous) cells, namely MRC-5, IMR-90, hTERT-HPNE, and MCF10A cells. Selectivity indexes (SI) were calculated as (IC50 in noncancerous cells)/(average IC50 in cancer cells). […] We further assessed the toxicity of several of the compounds in hepatocyte-like cells (HLC) generated from human pluripotent cells. […]

The mark [5] stands for this setting: 10% DMSO in RPMI cell culture medium containing serum, 37 °C, HPLC.

Usually IC50 stands for the concentration that gives 50% inhibition. Turning to `Cc1cc(Nc2ncc(Cl)c(Nc3ccccc3S(=O)(=O)C(C)C)n2)c(OC(C)C)cc1C1CCN(C(=O)[O][Pt]([OH])([Cl])[Cl])CC1.N.N` [compound 6, ctc-[Pt(NH3)2(ceritinib)(OH)Cl2]], in [1] (setting [5]), the “stability half-life (t 1/2)” value was 48 h. Moreover, the “reduction half-life (t 1/2)” value in data set [2] is reported as 2.2 h. The IC50 is 0.35 ± 0.06 µM with A549; 0.21 ± 0.06 µM in the data set on NCI-H2228; 0.8 ± 0.2 µM in the data set with U87-MG; 0.7 ± 0.3 µM with HCT116; 0.6 ± 0.2 µM with RD; 1.1 ± 0.3 µM in the data set with MDA-MB-231. The concentration for half-maximal inhibition (IC50) was 4.1 ± 0.9 µM with IMR-90; 2.6 ± 0.2 µM in the data set on MCF10A; 2.6 ± 0.9 µM in the data set on MRC-5; 2.7 ± 0.5 µM in the data set on hTERT-HPNE; 1.1 ± 0.2 µM with CHOK1; 0.29 ± 0.09 µM in the data set with MMC2. Moreover, the IC50 came to 0.63 µM in [3] and 3 µM in data set [4]. Moreover, the “Index F” value in the data set on MMC2 is given as 3.79(*). Further, the “SI, selectivity index” value in data set [4] is 4.8.

Turning to `C[C@@H](Oc1cc(-c2cnn(C3CCN(C(=O)[O][Pt]4([O]C(=O)CCCc5ccccc5)[O]C(=O)C(=O)[O]4)CC3)c2)cnc1N)c1c(Cl)ccc(F)c1Cl.N[C@@H]1CCCC[C@H]1N` [compound 4, ctc-[Pt(DACH)(crizotinib)(PhB)(Ox)]], the “intact Pt(IV) prodrug still present” value in data set [1] (37 °C) is “more than 80%”. The “stability half-life (t 1/2)” value in data set [1] (serum) is recorded as more than 75 h. The “reduction half-life (t 1/2)” value in data set [2] is reported as 11.5 h. For the same molecule, the IC50 in the data set with A549 was 1.5 ± 0.4 µM; with NCI-H2228, 1.3 ± 0.4 µM; in the data set with U87-MG, 1.8 ± 0.4 µM; in the data set with HCT116, 1 ± 0.2 µM; with RD, 1.6 ± 0.2 µM; in the data set on MDA-MB-231, 1.5 ± 0.5 µM. Also, the 50% inhibitory concentration (IC50) with IMR-90 came out at 2.9 ± 0.4 µM; with MCF10A, 2.4 ± 0.5 µM; in the data set on MRC-5 it was 3.1 ± 0.9 µM; in the data set on hTERT-HPNE it was 3.2 ± 0.6 µM; in the data set with CHOK1, 1.4 ± 0.4 µM; in the data set with MMC2, 1.3 ± 0.4 µM. Further, the IC50 in data set [3] was 1.5 µM; in [4], 2.9 µM. The “Index F” value in the data set on MMC2 turned out to be 1.08. In [4], the “SI, selectivity index” value is given as 1.9.

As to `O=C1[O][Pt]2([NH][C@@H]3CCCC[C@H]3[NH]2)[O]C1=O` [OxPt, oxaliplatin, reference compound], the IC50 in the data set with A549 stood at 1.6 ± 0.6 µM; in the data set on NCI-H2228 it was 3.8 ± 0.4 µM; with HCT116, 1.3 ± 0.1 µM; with RD it was 4.3 ± 0.5 µM; in the data set on MDA-MB-231, 6.2 ± 0.9 µM.

On to `Cc1cc(Nc2ncc(Cl)c(Nc3ccccc3S(=O)(=O)C(C)C)n2)c(OC(C)C)cc1C1CCN(C(=O)[O][Pt]2([O]C(=O)CCCc3ccccc3)[O]C(=O)C(=O)[O]2)CC1.N[C@@H]1CCCC[C@H]1N` [compound 8, ctc-[Pt(DACH)(ceritinib)(PhB)(Ox)]], for which the “stability half-life (t 1/2)” value in [1] (setting [5]) is reported as more than 75 h. Moreover, in [1] (37 °C), the “intact Pt(IV) prodrug still present” value was more than 65%. Further, in data set [2], the “reduction half-life (t 1/2)” value came to 12.5 h. Also, the IC50 came out at 1.3 ± 0.2 µM in the data set with A549; 0.8 ± 0.3 µM with NCI-H2228; 0.88 ± 0.06 µM with HCT116; 2.2 ± 0.4 µM with RD; 1.5 ± 0.4 µM with MDA-MB-231; 5 ± 0.6 µM in the data set on IMR-90. Also, the IC50 in the data set with MCF10A worked out at 2.9 ± 0.4 µM; in the data set with MRC-5, 2.3 ± 0.6 µM; in the data set on hTERT-HPNE, 3.1 ± 0.6 µM; with CHOK1, 1.1 ± 0.2 µM; with MMC2, 0.9 ± 0.2 µM; in [3] it was 1.3 µM. The IC50 in data set [4] was 3.3 µM. For the same molecule, the “Index F” value with MMC2 is given as 1.22. Further, the “SI, selectivity index” value in data set [4] turned out to be 2.5.

As to `CC(Oc1cc(-c2cnn(C3CCN(C(=O)[O][Pt]([OH])([Cl])[Cl])CC3)c2)cnc1N)c1c(Cl)ccc(F)c1Cl.N.N` (stereo not drawn) [compound 2, ctc-[Pt(NH3)2(crizotinib)(OH)Cl2]], the “stability half-life (t 1/2)” value in data set [1] (serum) was determined as 75 h. Also, the “reduction half-life (t 1/2)” value in data set [2] was 2.7 h. The IC50 in the data set on A549 was found to be 0.8 ± 0.1 µM; in the data set on NCI-H2228, 0.74 ± 0.08 µM; with U87-MG it was 2 ± 0.7 µM; with HCT116 it was 2.1 ± 0.5 µM; in the data set on RD, 2 ± 0.4 µM; in the data set with MDA-MB-231, 1.9 ± 0.6 µM. Also, the IC50 was found to be 7.4 ± 0.7 µM with IMR-90; 5.1 ± 0.6 µM in the data set on MCF10A; 4.2 ± 0.9 µM in the data set with MRC-5; 5.2 ± 0.6 µM with hTERT-HPNE; 1.5 ± 0.6 µM in the data set on CHOK1; 0.77 ± 0.09 µM with MMC2. Further, the results for the IC50 in data set [3] and in data set [4] were 1.6 µM and 5.5 µM, respectively. In the data set with MMC2, the “Index F” value worked out at 1.95. Further, the “SI, selectivity index” value in data set [4] came out at 3.4.
